Measurements: ChEMBL document CHEMBL5247612, “Medicinal chemistry strategies targeting PRMT5 for cancer therapy” (Eur J Med Chem, 2022)

Key:
[1] = Inhibition of Trypanosoma brucei PRMT7 by fluorescence-based SAHH-coupled assay
[2] = biological target: T1, Protein arginine N-methyltransferase 1 (Homo sapiens, UniProt Q99873); assay: Inhibition of human PRMT1 by fluorescence-based SAHH-coupled assay
[3] = biological target: T2, Protein arginine N-methyltransferase 5 (Homo sapiens, UniProt O14744); assay: Inhibition of PRMT5 human PRMT5 using [3H]-SAM as substrate by radioactive methylation assay
T2 sequence (O14744 whole entry): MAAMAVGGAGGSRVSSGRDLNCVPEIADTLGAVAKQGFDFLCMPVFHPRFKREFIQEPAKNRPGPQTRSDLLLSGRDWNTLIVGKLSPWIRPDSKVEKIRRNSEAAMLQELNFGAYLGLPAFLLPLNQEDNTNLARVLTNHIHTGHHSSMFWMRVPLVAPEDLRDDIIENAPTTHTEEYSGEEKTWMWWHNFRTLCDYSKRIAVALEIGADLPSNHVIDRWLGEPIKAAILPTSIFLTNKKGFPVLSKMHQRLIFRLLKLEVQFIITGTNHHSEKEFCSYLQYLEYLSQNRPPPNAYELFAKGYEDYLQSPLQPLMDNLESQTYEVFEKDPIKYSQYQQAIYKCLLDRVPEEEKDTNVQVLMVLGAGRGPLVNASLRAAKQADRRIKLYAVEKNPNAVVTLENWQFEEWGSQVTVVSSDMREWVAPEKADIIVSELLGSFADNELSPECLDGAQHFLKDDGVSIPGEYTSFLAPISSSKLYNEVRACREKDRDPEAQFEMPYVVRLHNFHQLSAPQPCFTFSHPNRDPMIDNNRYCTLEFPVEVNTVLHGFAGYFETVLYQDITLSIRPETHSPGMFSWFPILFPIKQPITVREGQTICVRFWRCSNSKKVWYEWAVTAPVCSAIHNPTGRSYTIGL

[4] = biological target: T2, Protein arginine N-methyltransferase 5; assay: Inhibition of PRMT5 human PRMT5 using Biotinylated H4 derived peptide and [3H]-SAM as substrate by radioactive methylation assay
[5] = biological target: T2, Protein arginine N-methyltransferase 5; assay: Inhibition of human PRMT5 using H4R3 S1ac and [3H]-SAM as substrate by AlphaLISA assay
[6] = biological target: T2, Protein arginine N-methyltransferase 5; assay: Inhibition of PRMT5 (unknown origin) by AlphaLISA assay
[7] = biological target: T2, Protein arginine N-methyltransferase 5; assay: Inhibition of human PRMT5 by fluorescence-based SAHH-coupled assay
[8] = biological target: T3, Histone-arginine methyltransferase CARM1 (Homo sapiens, UniProt Q86X55); assay: Inhibition of human PRMT4 by fluorescence-based SAHH-coupled assay
T3 sequence (Q86X55 whole entry): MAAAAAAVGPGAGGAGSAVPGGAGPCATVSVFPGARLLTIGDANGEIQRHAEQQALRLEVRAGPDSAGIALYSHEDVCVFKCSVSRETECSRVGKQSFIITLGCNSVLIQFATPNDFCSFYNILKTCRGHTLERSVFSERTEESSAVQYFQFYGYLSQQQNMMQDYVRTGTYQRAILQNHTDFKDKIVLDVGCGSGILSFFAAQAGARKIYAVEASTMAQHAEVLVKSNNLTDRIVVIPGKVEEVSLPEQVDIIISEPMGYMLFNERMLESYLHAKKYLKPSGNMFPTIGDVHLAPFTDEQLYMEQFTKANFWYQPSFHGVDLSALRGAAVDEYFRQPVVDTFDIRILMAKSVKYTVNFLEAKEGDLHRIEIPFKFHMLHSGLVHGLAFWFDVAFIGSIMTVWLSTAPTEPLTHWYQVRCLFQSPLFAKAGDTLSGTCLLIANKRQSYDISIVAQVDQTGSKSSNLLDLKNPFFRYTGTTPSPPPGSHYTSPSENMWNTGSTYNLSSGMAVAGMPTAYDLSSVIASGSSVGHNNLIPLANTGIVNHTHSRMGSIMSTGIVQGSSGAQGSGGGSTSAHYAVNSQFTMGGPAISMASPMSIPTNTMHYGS

A-375 [9] = assay: Anticancer activity against human A-375 cells in xenograft model assessed as tumor growth inhibition at 10 mg/kg, qd on a 4 day-on/3 day-off schedule for 26 days relative to control; type: functional; conditions: A-375, 624 h, time 26 day, read-out: TGI
A-375 [10] = assay: Antiproliferation activity against human A-375 cells assessed as cell growth inhibition; type: functional, cell-based
Z-138 = assay: Antiproliferative activity against human Z138 cells assessed as cell growth inhibition measured every 4 days upto 8 days by Cell Titer-Glo Luminescent Cell Viability kit method; type: functional, cell-based
[11] = biological target: T1, Protein arginine N-methyltransferase 1; assay: Inhibition of human PRMT1 using H4R3 S1ac and [3H]-SAM as substrate by AlphaLISA assay
[12] = biological target: T2, Protein arginine N-methyltransferase 5; assay: Inhibition of PRMT5 (unknown origin) assessed as enzymatic activity by AlphaLISA assay

T1 sequence (Q99873 whole entry): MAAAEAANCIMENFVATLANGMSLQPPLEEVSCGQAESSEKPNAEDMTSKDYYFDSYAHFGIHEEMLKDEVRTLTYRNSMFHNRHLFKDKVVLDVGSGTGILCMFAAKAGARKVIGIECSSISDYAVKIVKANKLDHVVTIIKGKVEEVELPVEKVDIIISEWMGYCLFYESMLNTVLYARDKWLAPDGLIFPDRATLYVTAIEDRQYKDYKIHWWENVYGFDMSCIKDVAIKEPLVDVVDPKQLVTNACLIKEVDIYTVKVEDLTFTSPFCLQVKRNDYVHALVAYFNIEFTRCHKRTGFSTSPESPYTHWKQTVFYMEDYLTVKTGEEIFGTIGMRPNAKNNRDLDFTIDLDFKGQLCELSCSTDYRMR

N=C(N)NCCC[C@H](N)C(=O)NCC(=O)N[C@H](CCNC(=N)NCSC[C@H]1O[C@@H](n2cnc3c(N)ncnc32)[C@H](O)[C@@H]1O)C(N)=O
IC50 [1]: 590 nM
IC50 [2]: 1700 nM

Nc1cccc(-c2cn(CC(O)CN3CCc4ccccc4C3)nn2)c1 (centres undefined)
IC50 [3]: 34000 nM

O=[N+]([O-])c1cccc(-c2cn(CC(O)CN3CCc4ccccc4C3)nn2)c1 (centres undefined)
IC50 [3]: 5500 nM

COC(=O)c1ccccc1NC(=O)CSc1nc2ccc(CO)cc2[nH]1
IC50 [4]: 330 nM

CCN(CC)CCNC1CCCc2c1[nH]c1ccc(C)cc21 (centres undefined)
IC50 [4]: 5700 nM

COc1cc(Cl)cc(/C=C2\SC(c3ccc(C)cc3)=NC2=O)c1O
IC50 [5]: 13900 nM

COc1cccc(/C=N/c2ccc(O)c(-c3nc4cc(C)ccc4o3)c2)c1O
IC50 [6]: 8100 nM

Cc1ccc2[nH]c3c(c2c1)CCCC3NCCCOc1ccc(F)cc1 (centres undefined)
IC50 [4]: 1700 nM

N=C(N)NCCC[C@H](N)C(=O)NCC(=O)N[C@H](CCNC(=N)NCCSC[C@H]1O[C@@H](n2cnc3c(N)ncnc32)[C@H](O)[C@@H]1O)C(N)=O
IC50 [7]: 0.42 nM
IC50 [1]: 830 nM
IC50 [2]: 5900 nM
IC50 [8]: 2.8 nM

Nc1ncnc2c1ccn2[C@@H]1O[C@H]([C@H](O)c2ccc(Cl)cc2)[C@@H](O)[C@H]1O
inhibition in vivo at 10 mg/kg (A-375 [9]): 64%
IC50 (A-375 [10]): 10.8 nM

C[C@@](O)(c1ccc(Cl)cc1)[C@H]1O[C@@H](n2ccc3c(N)ncnc32)[C@H](O)[C@@H]1O
IC50 (A-375 [10]): 44 nM

OC(CN1CCc2ccccc2C1)Cn1cc(-c2cccc(NC3CCOCC3)c2)nn1 (centres undefined)
IC50 [3]: 2400 nM

C[C@@H]1[C@H](O)[C@@H](CSCCCNC(=N)NCCCC[C@@H](N)C(N)=O)O[C@H]1n1cnc2c(N)ncnc21
IC50 [1]: 20000 nM
IC50 [2]: 3000 nM

OC(CN1CCc2ccccc2C1)Cn1cc(-c2cccc(NC3CCC3)c2)nn1 (centres undefined)
IC50 [3]: 720 nM
IC50 (Z-138): 2600 nM

CCc1ccc2oc(-c3cc(/N=C/c4cccc(C)c4O)ccc3O)nc2c1
IC50 [6]: 60000 nM

COc1cc(Br)cc(/C=C2\SC(c3ccc(C)cc3)=NC2=O)c1O
IC50 [5]: 6600 nM

COc1ccc(OC)c(NC(=O)CSc2nnc3c4ccccc4c4ccccc4c3n2)c1
IC50 [6]: 27000 nM

Cc1ccc(C2=NC(=O)/C(=C/c3ccc(O)c(O)c3)S2)cc1
IC50 [5]: 770 nM
IC50 [11]: 10000 nM

Nc1ncnc2c1ccn2[C@@H]1O[C@H]([C@H](O)c2ccccc2)[C@@H](O)[C@H]1O
IC50 (A-375 [10]): 31.5 nM

COC(=O)c1ccccc1NC(=O)CCN1CCc2ccccc2C1
IC50 [12]: 34100 nM

CCOC(=O)c1c(NC(=O)CSc2nnc3c4ccccc4n(CCc4ccccc4)c3n2)sc2c1CCN(C)C2
IC50 [6]: 6500 nM
